Measurements reported in ChEMBL document CHEMBL2016462, “Inhibitors of Ketohexokinase: Discovery of Pyrimidinopyrimidines with Specific Substitution that Complements the ATP-Binding Site” (ACS Med Chem Lett, 2011).

Columns and labels:
Ketohexokinase [1] = molecular target: T1, Ketohexokinase (Homo sapiens, UniProt P50053); assay: Inhibition of human ketohexokinase isoform C expressed in Escherichia coli BL21 (DE3) cells using D-fructose as substrate after 12 to 15 mins by fluorescence polarization assay
T1 sequence (P50053 whole entry): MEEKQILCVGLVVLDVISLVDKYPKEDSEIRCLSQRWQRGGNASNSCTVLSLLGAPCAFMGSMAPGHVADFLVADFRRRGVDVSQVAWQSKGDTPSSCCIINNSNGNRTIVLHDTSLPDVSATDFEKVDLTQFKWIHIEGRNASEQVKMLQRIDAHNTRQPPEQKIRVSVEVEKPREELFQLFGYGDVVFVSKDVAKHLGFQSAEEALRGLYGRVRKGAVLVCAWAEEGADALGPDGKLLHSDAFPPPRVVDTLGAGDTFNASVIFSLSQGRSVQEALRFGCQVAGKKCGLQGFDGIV

Ketohexokinase [2] = molecular target: T1, Ketohexokinase; assay: Inhibition of ketokinase isoform C in human HepG2 cells assessed as levels of fructose-1-phosphate preincubated for 30 mins followed by substrate addition measured after 3 hrs by LC-MS analysis; format: cell-based

C#CCNc1ncnc2c(Nc3ccccc3C)nc(N3CCNCC3)nc12
IC50 (Ketohexokinase [1]): 300 nM

Cc1ccccc1Nc1nc(N2CCNCC2)nc2c(NCc3ccccc3)ncnc12
IC50 (Ketohexokinase [1]): 400 nM

Cc1ccccc1Nc1nc(N2CCNCC2)nc2c(NCc3cccs3)ncnc12
IC50 (Ketohexokinase [1]): 300 nM

Cc1ccccc1Nc1nc(N2CCNCC2)nc2c(NCc3nccs3)ncnc12
IC50 (Ketohexokinase [1]): 60 nM

Cc1ccccc1Nc1nc(N2CCCNCC2)nc2c(NCC3CC3)ncnc12
IC50 (Ketohexokinase [1]): 300 nM

Cc1ccccc1Nc1nc(N2CCN(C)CC2)nc2c(NCC3CC3)ncnc12
IC50 (Ketohexokinase [1]): 1500 nM

Cc1ccccc1Nc1nc(N2CCOCC2)nc2c(NCC3CC3)ncnc12
IC50 (Ketohexokinase [1]): > 7000 nM

Cc1ccccc1Nc1nc(N2CCC(CN)CC2)nc2c(NCC3CC3)ncnc12
IC50 (Ketohexokinase [1]): 70 nM

Cc1ccccc1Nc1nc(N2CCC(N)CC2)nc2c(NCC3CC3)ncnc12
IC50 (Ketohexokinase [1]): 200 nM

Cc1ccccc1Nc1nc(NC2CCNCC2)nc2c(NCC3CC3)ncnc12
IC50 (Ketohexokinase [1]): 710 nM

CSc1ccccc1Nc1nc(N2CCNCC2)nc2c(NCC3CCC3)ncnc12
IC50 (Ketohexokinase [1]): 18 nM

CSc1ccccc1Nc1nc(N2CCNCC2)nc2c(NCCC3CC3)ncnc12
IC50 (Ketohexokinase [1]): 50 nM

COCCNc1ncnc2c(Nc3ccccc3SC)nc(N3CCNCC3)nc12
IC50 (Ketohexokinase [1]): 7 nM
IC50 (Ketohexokinase [2]): 140 nM

CSc1ccccc1Nc1nc(N2CCNCC2)nc2c(NCc3cccs3)ncnc12
IC50 (Ketohexokinase [1]): 30 nM

CSc1ccccc1Nc1nc(N2CCNCC2)nc2c(NCc3nccs3)ncnc12
IC50 (Ketohexokinase [1]): 16 nM
IC50 (Ketohexokinase [2]): 270 nM

CSc1ccccc1Nc1nc(N2CCNCC2)nc2c(NCc3ccccn3)ncnc12
IC50 (Ketohexokinase [1]): 9.8 nM
IC50 (Ketohexokinase [2]): 270 nM

CSc1ccccc1Nc1nc(N2CCNCC2)nc2c(N)ncnc12
IC50 (Ketohexokinase [1]): 7.1 nM
IC50 (Ketohexokinase [2]): 78 nM

CSc1ccccc1Nc1nc(N2CCC[C@@H](N)C2)nc2c(NCC3CC3)ncnc12
IC50 (Ketohexokinase [1]): 18 nM

CSc1ccccc1Nc1nc(N2CCC[C@H](N)C2)nc2c(NCC3CC3)ncnc12
IC50 (Ketohexokinase [1]): 23 nM

CSc1ccccc1Nc1nc(N2CCC(CN)CC2)nc2c(NCC3CC3)ncnc12
IC50 (Ketohexokinase [1]): 10 nM

CSc1ccccc1Nc1nc(N2CC(CN)C2)nc2c(NCC3CC3)ncnc12
IC50 (Ketohexokinase [1]): 30 nM
IC50 (Ketohexokinase [2]): 590 nM

CSc1ccccc1Nc1nc(N2CC3(CNC3)C2)nc2c(NCC3CC3)ncnc12
IC50 (Ketohexokinase [2]): 360 nM

CNCCN(C)c1nc(Nc2ccccc2SC)c2ncnc(NCC3CC3)c2n1
IC50 (Ketohexokinase [1]): 130 nM

CSc1ccccc1Nc1nc(N2CCC(CN(C)C)CC2)nc2c(NCC3CC3)ncnc12
IC50 (Ketohexokinase [1]): 140 nM

CSc1ccccc1Nc1nc(N2CCN(C)CC2)nc2c(NCC3CC3)ncnc12
IC50 (Ketohexokinase [1]): 110 nM
